Laboratory results from paper PMC3898987 (Bioorganic & Medicinal Chemistry, 2013).
Residue numbers refer to the chain shown, from its start. Several values for one entry are separate records, joined by “and”; a condition that tells them apart may be missing. Identical values can stand only once.

Tests used:
Assay in all cases: FlexStation membrane potential dye functional assay, HEK293 cells
Assay type in all cases: cell-based
Set-up in all cases: expressed in transfected cells; host or cells: HEK293
[1] = target: T1, 5-HT3A receptor Y73F (Homo sapiens, UniProt P46098, Y68F); details: 5-HT3A Y73F
T1 sequence (P46098 24-478 Y68F): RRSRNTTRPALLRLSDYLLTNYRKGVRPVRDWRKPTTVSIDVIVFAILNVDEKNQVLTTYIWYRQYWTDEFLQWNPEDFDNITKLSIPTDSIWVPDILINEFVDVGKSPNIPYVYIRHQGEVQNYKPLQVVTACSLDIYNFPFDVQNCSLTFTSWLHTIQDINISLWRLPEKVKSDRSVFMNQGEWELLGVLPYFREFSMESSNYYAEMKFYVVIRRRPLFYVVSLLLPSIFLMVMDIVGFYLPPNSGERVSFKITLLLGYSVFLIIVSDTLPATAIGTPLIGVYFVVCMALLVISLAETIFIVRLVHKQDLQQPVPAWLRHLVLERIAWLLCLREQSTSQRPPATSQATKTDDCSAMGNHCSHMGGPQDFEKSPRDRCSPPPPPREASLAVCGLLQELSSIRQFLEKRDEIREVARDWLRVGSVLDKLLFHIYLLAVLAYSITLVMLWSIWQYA
Method: (§1) Human embryonic kidney (HEK) 293 cells were cultured on 90 mm tissue culture plates at 37 °C and 7% CO2 in a humidified atmosphere. They were grown in DMEM:F12 (Dulbecco’s Modified Eagle’s Medium/Nutrient Mix F12 (1:1)) with GlutaMAX I™ containing 10% fetal calf serum and passaged when confluent. […] For FlexStation assays, transfected cells were plated on 96-well plates and incubated 1–2 days before assay.
(§2) Fluorometric studies were undertaken using a FlexStation® (Molecular Devices, Sunnyvale, CA, USA) as previously described.[11]
(§3) Fluorescence was measured every 2 s for 200 s. […] Concentration–response and inhibition curves were obtained for each mutant, and the fluorescence values were normalized to the maximal response.

[2] = target: T2, WT 5-HT3A receptor (Homo sapiens, UniProt P46098)
T2 sequence (P46098 24-478): T1 sequence (P46098 24-478 Y68F) with F45Y
Method: as §1, §2, §3

[3] = target: T3, 5-HT3A receptor S163A (Homo sapiens, UniProt P46098, S158A); details: 5-HT3A S163A
T3 sequence (P46098 24-478 S158A): T1 sequence (P46098 24-478 Y68F) with F45Y, S135A
Method: as §1, §2, §3

[4] = target: T4, 5-HT3A receptor D165K (Homo sapiens, UniProt P46098, D160K); details: 5-HT3A D165K
T4 sequence (P46098 24-478 D160K): T1 sequence (P46098 24-478 Y68F) with F45Y, D137K
Method: as §1, §2, §3

[5] = target: T5, 5-HT3A receptor Y73S (Homo sapiens, UniProt P46098, Y68S); details: 5-HT3A Y73S
T5 sequence (P46098 24-478 Y68S): T1 sequence (P46098 24-478 Y68F) with F45S
Method: as §1, §2, §3

[6] = inhibition of 5-HT (EC50 concentration) response, 45 min preincubation

Row | Structure (SMILES) | Hill Coefficient ([1]; 5-HT concentration-response) | Hill Coefficient ([2]; 5-HT concentration-response) | Hill Coefficient ([3]; 5-HT concentration-response) | Hill Coefficient ([4]; 5-HT concentration-response) | Hill Coefficient ([5]; 5-HT concentration-response) | IC50 [1, 6] [nM] | IC50 [2, 6] [nM] | IC50 [3, 6] [nM] | IC50 [4, 6] [nM] | IC50 [5, 6] [nM]
1 | NCCc1c[nH]c2ccc(O)cc12 [5-HT, serotonin] | 2.3 ± 0.3 | 2.3 and 2.3 ± 0.2 | 3.8 ± 0.4 | 3.0 ± 0.3 | 2.0 ± 0.3 |  |  |  |  | 
2 | O=C1c2cccc3c2[C@H](CCC3)CN1[C@@H]1CN2CCC1CC2 [Palonosetron] |  |  |  |  |  | 1.23 ± 0.15 | 0.83 ± 0.49 | 1.57 ± 0.12 | 1.3 ± 0.43 | 3.64 ± 1.1
